The results in this text go back to US20240025892A1 (priority 2020, published 2024).

Structures are written as SMILES. Read-outs that look alike come from different tables or passages of the source.

In one series the target is Recombinant SIK2 (Homo sapiens (Human), UniProt Q9H0K1). Description: biochemical. The procedure: Assays were performed in base reaction buffer (20 mM Hepes (pH 7.5), 10 mM MgCl2, 1 mM EGTA, 0.02% Brij35, 0.02 mg/mL BSA, 0.1 mM Na3VO4, 2 mM DTT, 1% DMSO). Compounds were dissolved in 100% DMSO in a 10 mM stock. […] Assays were performed for 20 minutes at room temperature, after which time ^33P-ATP (10 μCi/μL) was added followed by incubation for another 120 minutes at room temperature. Thereafter, radioactivity incorporated into the pEY peptide substrate was detected by filter-binding method. Kinase activity data were expressed as the percent remaining kinase activity in test samples compared to DMSO reactions. IC50 values and curve fits were obtained using Prism (GraphPad Software).

Another series relates to RANKL. Description: RANKL gene expression in Ocy454 cells (RT-qPCR).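 Also: Ocy454 cells moved to 37 °C for osteocytic differentiation before compound exposure, RANKL mRNA by SYBR Green qRT-PCR, 2^−ΔΔCT with β-actin normalization, duplicate wells.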 Conditions: maximal RANKL fold induction versus DMSO, four hours. In general terms: Real-time PCR tracks product formation cycle by cycle.
The next series deals with CRTC2 (TORC2). Description: CRTC2 nuclear translocation (PathHunter U2OS). Type of series: cell-based. Conditions: maximal CRTC2 nuclear translocation, U2OS cells, 90 minutes, maximum dose 10 μM. An excerpt: PathHunter® Nuclear Translocation cell lines are engineered to co-express two fusion proteins: a) Enzyme Donor (ED) tagged target protein; b) an Enzyme Acceptor (EA) tagged TAZ domain, derived from the CBP/P300 transcription factor, that localizes to the nucleus. Activation of the signaling pathway induces translocation of the ED-tagged target protein into the nucleus, which will force complementation of the two enzyme fragments, and result in the formation of a functional enzyme that will hydrolyze substrate and generate a chemiluminescent signal. U2OS CRTC2 (TORC2) translocation assays were performed in 384 well plates at Eurofins DiscoverX (Freemont, CA). Cells were treated with compounds for 90 minutes in experimental duplicates in 5 point dose response format (4-fold serial dilutions with a maximum dose of 10 μM) followed by […] readout on an Envision 2104 Multilabel Reader. In all experiments, forskolin was used as a positive control and maximal CRTC2 nuclear translocation induced by each compound is expressed as a percentage of the signal stimulated by forskolin.
Representative data are shown in FIG. 4A and presented as percent of the positive control (forskolin) signal.

[1] abbreviates: recombinant SIK2 2.5 nM, 1 μM ATP, read-out: SIK2 IC50.

Sequence of Recombinant SIK2 (Q9H0K1 whole entry): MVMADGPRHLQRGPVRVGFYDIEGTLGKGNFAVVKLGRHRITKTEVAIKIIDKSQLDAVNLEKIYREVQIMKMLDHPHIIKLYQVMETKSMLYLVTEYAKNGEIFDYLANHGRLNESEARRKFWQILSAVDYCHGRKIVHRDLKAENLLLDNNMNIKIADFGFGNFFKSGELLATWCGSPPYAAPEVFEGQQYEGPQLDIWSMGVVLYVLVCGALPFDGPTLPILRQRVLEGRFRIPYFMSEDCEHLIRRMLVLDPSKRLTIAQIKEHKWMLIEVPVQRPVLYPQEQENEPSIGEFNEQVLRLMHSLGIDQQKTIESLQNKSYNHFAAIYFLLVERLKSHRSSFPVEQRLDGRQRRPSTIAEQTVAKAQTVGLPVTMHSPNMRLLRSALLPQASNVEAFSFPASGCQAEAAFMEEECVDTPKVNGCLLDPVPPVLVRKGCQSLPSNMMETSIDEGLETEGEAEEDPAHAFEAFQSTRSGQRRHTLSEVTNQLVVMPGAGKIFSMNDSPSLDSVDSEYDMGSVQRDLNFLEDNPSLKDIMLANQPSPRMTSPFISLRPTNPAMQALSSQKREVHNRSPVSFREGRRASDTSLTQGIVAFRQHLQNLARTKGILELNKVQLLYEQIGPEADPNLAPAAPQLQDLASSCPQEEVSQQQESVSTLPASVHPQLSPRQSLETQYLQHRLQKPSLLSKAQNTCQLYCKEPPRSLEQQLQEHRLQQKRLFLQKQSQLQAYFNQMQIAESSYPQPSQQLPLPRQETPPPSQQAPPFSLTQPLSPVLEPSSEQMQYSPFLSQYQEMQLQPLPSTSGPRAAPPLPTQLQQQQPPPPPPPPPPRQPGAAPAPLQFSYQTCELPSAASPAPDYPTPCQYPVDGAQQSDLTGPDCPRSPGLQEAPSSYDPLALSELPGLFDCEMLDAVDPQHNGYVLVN

For `COc1cc(-c2cnc3cc(-c4cnn(C5CC5)c4)ccn23)cc(OC)c1C(=O)NN` [Cmpd. 55A, 4-(7-(1-cyclopropyl-1H-pyrazol-4-yl)imidazo[1,2-a]pyridin-3-yl)-2,6-dimethoxybenzohydrazide], at Recombinant SIK2 (initial in vitro testing, read-out: SIK2 inhibition IC50), the IC50 – broadly, the concentration needed to halve the response being measured – was less than 0.1 nM.
As to `Cc1cn(-c2cccc3ccc(-n4cnc5cc(OCC6(C)COC6)ccc54)nc23)cn1` [Example 1, 8-(4-Methylimidazol-1-yl)-2-[5-[(3-methyloxetan-3-yl)methoxy]benzimidazol-1-yl]quinoline], the IC50 at Recombinant SIK2 (setting [1]) came out at 30.7 nM. In addition, in the series on RANKL, the “RANKL Fold Induction” value was determined as 3.08 fold.
`CC1(COc2ccc3c(c2)ncn3-c2ccc3cccc(N4CCC5(CCNC5)C4)c3n2)COC1` (stereo not shown) [Example 6, 2-(5-((3-methyloxetan-3-yl)methoxy)-1H-benzo[d]imidazol-1-yl)-8-(2,7-diazaspiro[4.4]nonan-2-yl)quinoline]: on Recombinant SIK2 (setting [1]), the IC50 was 5.75 nM. In addition, the “CRTC2 Efficacy (% of forskolin)” value in the series with CRTC2 (TORC2) is given as 127.8 % of forskolin.
For `CC1(COc2ccc3c(c2)ncn3-c2ccc3cccc(OC4CNC4)c3n2)COC1` [Example 9, 8-(azetidin-3-yloxy)-2-(5-((3-methyloxetan-3-yl)methoxy)-1H-benzo[d]imidazol-1-yl)quinoline], the 50% inhibitory concentration (IC50) at Recombinant SIK2 (setting [1]) amounted to 24.6 nM. For the same compound, the “RANKL Fold Induction” value in the series on RANKL was determined as 9.69 fold.
With `CN1CC(Oc2cccc3ccc(-n4cnc5cc(OCC6(C)COC6)ccc54)nc23)C1` [Example 11, 8-((1-Methylazetidin-3-yl)oxy)-2-(5-((3-methyloxetan-3-yl)methoxy)-1H-benzo[d]imidazol-1-yl)quinoline], the 50% inhibitory concentration (IC50) at Recombinant SIK2 (setting [1]) turned out to be 22.7 nM. Further, the “RANKL Fold Induction” value with RANKL was 1.38 fold.
`CC1(COc2ccn3c(-c4ccc5cccc(N6CCC(N)CC6)c5n4)cnc3c2)COC1` [Example 13, 1-(2-(7-((3-Methyloxetan-3-yl)methoxy)imidazo[1,2-a]pyridin-3-yl)quinolin-8-yl)piperidin-4-amine]: the IC50 at Recombinant SIK2 (setting [1]) came to 4.19 nM. For the same compound, the “CRTC2 Efficacy (% of forskolin)” value in the series on CRTC2 (TORC2) is on record as 140.6 % of forskolin.
Regarding `Cn1cnc(-c2cccc3ccc(-n4cnc5cc(OCC6(C)COC6)ccc54)nc23)c1` [Example 18, 8-(1-Methyl-1H-imidazol-4-yl)-2-(5-((3-methyloxetan-3-yl)methoxy)-1H-benzo[d]imidazol-1-yl)quinoline], at Recombinant SIK2 (setting [1]), the IC50 is 185 nM. Also, in the series on RANKL, the “RANKL Fold Induction” value came out at 7.49 fold.
With `N#Cc1ccc(-c2cnc3cc(C(=O)NCc4ccnnc4)ccn23)cc1` [Example 20, 3-(4-cyanophenyl)-N-(pyridazin-4-ylmethyl)imidazo[1,2-a]pyridine-7-carboxamide], on Recombinant SIK2 (setting [1]), the 50% inhibitory concentration (IC50) worked out at 109 nM. The “CRTC2 Efficacy (% of forskolin)” value with CRTC2 (TORC2) is 9.4 % of forskolin.
The corresponding values for `N#Cc1ccc(-c2cnc3cc(C(=O)NCc4cnccn4)ccn23)cc1` [Example 21, 3-(4-cyanophenyl)-N-(pyrazin-2-ylmethyl)imidazo[1,2-a]pyridine-7-carboxamide] are 118 nM and 9.9 % of forskolin.
The matching figures for `N#Cc1ccc(-c2cnc3cc(C(=O)NCc4ccco4)ccn23)cc1` [Example 27, 3-(4-cyanophenyl)-N-(furan-2-ylmethyl)imidazo[1,2-a]pyridine-7-carboxamide]: 132 nM and 5.3 % of forskolin.
The matching figures for `Cc1ccc(CN(C)C(=O)c2ccn3c(-c4ccc(C#N)cc4)cnc3c2)cn1` [Example 30, 3-(4-Cyanophenyl)-N-methyl-N-((6-methylpyridin-3-yl)methyl)imidazo[1,2-a]pyridine-7-carboxamide]: 1700 nM and 1.7 % of forskolin.
On to `N#Cc1ccc(-n2cnc3cc(C(=O)NCc4cccnc4)ccc32)cc1` [Example 32, 1-(4-cyanophenyl)-N-(3-pyridylmethyl)benzimidazole-5-carboxamide], for which the “CRTC2 Efficacy (% of forskolin)” value in the series on CRTC2 (TORC2) is reported as 10.6 % of forskolin.
As to `N#Cc1ccc(-n2cnc3cc(C(=O)NCc4nc5ccccc5[nH]4)ccc32)cc1` [Example 34, N-((1H-benzo[d]imidazol-2-yl)methyl)-1-(4-cyanophenyl)-1H-benzo[d]imidazole-5-carboxamide], the IC50 at Recombinant SIK2 (setting [1]) came out at 20 nM. Besides, the “CRTC2 Efficacy (% of forskolin)” value in the series on CRTC2 (TORC2) is given as 14 % of forskolin.
For `N#Cc1ccc(-c2cnc3nc(C(=O)NCc4cccnc4)ccn23)cc1` [Example 36, 3-(4-cyanophenyl)-N-(3-pyridylmethyl)imidazo[1,2-a]pyrimidine-7-carboxamide], at Recombinant SIK2 (setting [1]), the IC50 was determined as 5300 nM. For the same compound, the “CRTC2 Efficacy (% of forskolin)” value with CRTC2 (TORC2) is given as 2.5 % of forskolin.
Turning to `COc1cc(-c2cnc3cc(OCC4(C)COC4)ccn23)cc(OC)c1C#N` [Example 40, 2,6-dimethoxy-4-(7-((3-methyloxetan-3-yl)methoxy)imidazo[1,2-a]pyridin-3-yl)benzonitrile], the IC50 at Recombinant SIK2 (setting [1]) is 9.87 nM.
As to `CCn1cc(-c2ccc3c(c2)ncn3-c2ccc(C#N)cc2)cn1` [Example 43, 4-[5-(1-Ethylpyrazol-4-yl)benzimidazol-1-yl]benzonitrile], the IC50 on Recombinant SIK2 (setting [1]) turned out to be 5.89 nM. In addition, in the series on RANKL, the “RANKL Fold Induction” value worked out at 7.09 fold.
The matching figures for `N#Cc1ccc(-n2cnc3cc(-c4cnn(C5CC5)c4)ccc32)cc1` [Example 44, 4-(5-(1-Cyclopropyl-1H-pyrazol-4-yl)-1H-benzo[d]imidazol-1-yl)benzonitrile]: 2.34 nM and 3.07 fold.
The matching figures for `CCn1cc(-c2ccn3c(-c4ccc(C#N)nc4)cnc3c2)cn1` [Example 46, 5-(7-(1-ethyl-1H-pyrazol-4-yl)imidazo[1,2-a]pyridin-3-yl)picolinonitrile]: 14 nM and 3.44 fold.
Take `N#Cc1ccc(-c2cnc3cc(-n4cnc(C5CC5)c4)ccn23)cc1` [Example 48, 4-[7-(4-Cyclopropylimidazol-1-yl)imidazo[1,2-a]pyridin-3-yl]benzonitrile]: the IC50 at Recombinant SIK2 (setting [1]) came out at 7.65 nM.
For the compound `N#Cc1ccc(-c2cnc3cc(-c4cnn(C5COC5)c4)ccn23)cc1` [Example 50, 4-(7-(1-(oxetan-3-yl)-1H-pyrazol-4-yl)imidazo[1,2-a]pyridin-3-yl)benzonitrile], on Recombinant SIK2 (setting [1]), the IC50 is 2.34 nM. Besides, the “RANKL Fold Induction” value in the series on RANKL amounted to 15.84 fold.
The corresponding values for `N#Cc1ccc(-c2cnn3cc(-c4cnn(C5CC5)c4)ccc23)cc1` [Example 54, 4-(6-(1-cyclopropyl-1H-pyrazol-4-yl)pyrazolo[1,5-a]pyridin-3-yl)benzonitrile] are 2.24 nM and 9.07 fold.
The corresponding values for `CCc1nnc(-c2c(F)cc(-c3cnc4cc(-c5cnn(C)c5)ccn34)cc2F)o1` [Example 58, 2-(2,6-difluoro-4-(7-(1-methyl-1H-pyrazol-4-yl)imidazo[1,2-a]pyridin-3-yl)phenyl)-5-ethyl-1,3,4-oxadiazole] are 1080 nM and 1.26 fold.
Turning to `CCc1nnc(-c2c(Cl)cc(-c3cnc4cc(-c5cnn(C)c5)ccn34)cc2Cl)o1` [Example 59, 2-(2,6-dichloro-4-(7-(1-methyl-1H-pyrazol-4-yl)imidazo[1,2-a]pyridin-3-yl)phenyl)-5-ethyl-1,3,4-oxadiazole], the 50% inhibitory concentration (IC50) on Recombinant SIK2 (setting [1]) is 270 nM.
On to `CCn1cc(-c2cnc3c(-c4ccc(C#N)cc4)cnn3c2)cn1` [Example 63, 4-[6-(1-Ethylpyrazol-4-yl)pyrazolo[1,5-a]pyrimidin-3-yl]benzonitrile], for which, on Recombinant SIK2 (setting [1]), the IC50 came to 3.4 nM. In addition, the “RANKL Fold Induction” value with RANKL came to 0.89 fold.
The matching figures for `N#Cc1ccc(-c2cnn3cc(-c4cnn(C5CC5)c4)cnc23)cc1` [Example 64, 4-[6-(1-Cyclopropylpyrazol-4-yl)pyrazolo[1,5-a]pyrimidin-3-yl]benzonitrile]: 8.8 nM and 0.47 fold.
With `CCn1cc(-c2c(OC)cc(-c3cnn4cc(-c5cnn(C6CC6)c5)ccc34)cc2OC)nn1` [Example 65, 6-(1-Cyclopropylpyrazol-4-yl)-3-[4-(1-ethyltriazol-4-yl)-3,5-dimethoxy-phenyl]pyrazolo[1,5-a]pyridine], at Recombinant SIK2 (setting [1]), the IC50 stood at 23.7 nM.
Still for that read-out and setting: under `N#Cc1ccc(-c2cnc3cc(-c4cn(C5CC5)nn4)ccn23)cc1` [Example 66, 4-[7-(1-Cyclopropyltriazol-4-yl)imidazo[1,2-a]pyridin-3-yl]benzonitrile] stands 37 nM.
For `CCn1nnc(-c2ccn3c(-c4ccc(C#N)cc4)cnc3c2)n1` [Example 67, 4-[7-(2-Ethyltetrazol-5-yl)imidazo[1,2-a]pyridin-3-yl]benzonitrile], the IC50 on Recombinant SIK2 (setting [1]) is 227 nM. Moreover, in the series on RANKL, the “RANKL Fold Induction” value is reported as 0.47 fold.
